The target of this experiment is T1, human ALK5 (recombinant TGF β1 N-term GST-tagged, 80-end) (Homo sapiens, UniProt P36897).
T1 construct: human ALK5 (recombinant TGF β1 N-term GST-tagged, 80-end); GST (N); purchased
T1 sequence (P36897 80-503 limits assumed): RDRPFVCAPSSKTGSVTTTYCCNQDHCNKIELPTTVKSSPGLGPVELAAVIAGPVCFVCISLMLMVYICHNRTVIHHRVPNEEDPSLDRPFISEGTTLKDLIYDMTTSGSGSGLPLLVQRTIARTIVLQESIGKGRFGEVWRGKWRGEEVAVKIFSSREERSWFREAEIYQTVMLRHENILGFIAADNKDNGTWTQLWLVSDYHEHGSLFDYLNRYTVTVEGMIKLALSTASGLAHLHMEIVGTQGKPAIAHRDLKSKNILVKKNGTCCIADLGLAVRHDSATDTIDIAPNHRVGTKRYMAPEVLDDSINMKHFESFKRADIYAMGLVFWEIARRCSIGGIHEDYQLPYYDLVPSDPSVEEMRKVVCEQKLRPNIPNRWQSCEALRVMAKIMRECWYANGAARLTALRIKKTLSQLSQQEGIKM
Briefly: ADP-GLO kinase assay, biochemical ALK5 assay. Particulars: pIC50 converted to pKi using the Cheng-Prusoff equation, ATP at Km, or high ATP (30-fold Km) for very potent compounds, 25° C. The procedure: The enzymatic activity of compounds of the present invention was monitored measuring the formation of ADP using the ADP-GLO Kinases assay. Following the incubation of the purified enzyme, a substrate and ATP, the produced ADP was converted into ATP, which in turn was converted into light by Ultra-Glo Luciferase. The luminescent signal positively correlated with ADP amount and kinase activity. Briefly, the kinase reaction was performed by incubating 2.6 nM of the purified, commercially available human ALK5 (recombinant TGF β1 N-term GST-tagged, 80-end), a final concentration of TGFβ1 peptide 94.5 μM (Promega, T36-58) and ultra-pure ATP (Promega V915B). The ATP concentration was set at the Km value (concentration of substrate which permits the enzyme to achieve half maximal velocity (Vmax)) of ALK5 (0.5 μM). Compound and ALK5 kinase were mixed and incubated for 15 mins. Reactions were initiated by addition of ATP at a final concentration in the assay of […]. After an incubation of 120 min, the reaction was stopped, and ADP production detected with ADP-Glo kit according to manufacturer's indications. To overcome the assay wall limit for very potent compounds the assay protocol was changed by using a high ATP concentration (30-fold Km). Compounds and ALK5 kinase were mixed for 15 min and the reaction initiated by addition of TGFβ1 peptide and ATP at a final concentration in the assay of 15 μM. After an incubation of 60 min, the kinase reaction was stopped, and ADP production detected with ADP-Glo kit according to manufacturer's indications.
All reaction and incubation steps were performed at 25° C. and the assays were performed in 384-well format and validated using a selection of reference compounds tested in 11-point concentration-response curve.
Results were expressed as pIC50 (negative logarithm of IC50) and subsequently converted to pKi (negative logarithm of […]) using the Cheng-Prusoff equation. The higher the value of pKi, the greater the inhibition of ALK5 activity.
(In general: In ADP-Glo the light output rises with the ADP produced.)
Broadly, the Ki is the equilibrium dissociation constant of an inhibitor or competing ligand from its target. As to `CN1CCN(CCC(=O)Nc2cc(Nc3cc(-c4cc(Cl)ccc4F)nnc3C3=CCCN(C(=O)OC(C)(C)C)C3)ccn2)CC1` [Example 11, tert-butyl 5-[6-(5-chloro-2-fluorophenyl)-4-({2-[3-(4-methylpiperazin-1-yl)propanamido]pyridin-4-yl}amino)pyridazin-3-yl]-1,2,3,6-tetrahydropyridine-1-carboxylate], the Ki was 0.126 to 0.794 nM.
The value for `CN1CCN(CCC(=O)Nc2cc(Nc3cc(-c4cc(Cl)ccc4F)nnc3C3=CCCNC3)ccn2)CC1` [Example 12, N-(4-{[6-(5-chloro-2-fluorophenyl)-3-(1,2,5,6-tetrahydropyridin-3-yl)pyridazin-4-yl]amino}pyridin-2-yl)-3-(4-methylpiperazin-1-yl)propanamide] was 1 to 3.16 nM; that for `CN1CCN(CCC(=O)Nc2cc(Nc3cc(-c4cc(Cl)ccc4F)nnc3C3=CCCN(C)C3)ccn2)CC1` [Example 13, N-(4-{[6-(5-chloro-2-fluorophenyl)-3-(1-methyl-1,2,5,6-tetrahydropyridin-3-yl)pyridazin-4-yl]amino}pyridin-2-yl)-3-(4-methylpiperazin-1-yl)propanamide] was 1 to 3.16 nM.
With `CC(=O)N1CCC=C(c2nnc(-c3cc(Cl)ccc3F)cc2Nc2ccnc(NC(=O)CCN3CCN(C)CC3)c2)C1` [Example 14, N-(4-{[3-(1-acetyl-1,2,5,6-tetrahydropyridin-3-yl)-6-(5-chloro-2-fluorophenyl)pyridazin-4-yl]amino}pyridin-2-yl)-3-(4-methylpiperazin-1-yl)propanamide] the figure was 1 to 3.16 nM.
With `CN1CCN(CCC(=O)Nc2cc(Nc3cc(-c4cc(Cl)ccc4F)nnc3C3CCN3C(=O)OC(C)(C)C)ccn2)CC1` (centres unmarked) [Example 15, tert-butyl 2-[6-(5-chloro-2-fluorophenyl)-4-({2-[3-(4-methylpiperazin-1-yl)propanamido]pyridin-4-yl}amino)pyridazin-3-yl]azetidine-1-carboxylate] the figure was 0.126 to 0.794 nM.
Take `CN1CCN(CCC(=O)Nc2cc(Nc3cc(-c4cc(Cl)ccc4F)nnc3C3CCN3)ccn2)CC1` (centres unmarked) [Example 16, N-(4-{[3-(azetidin-2-yl)-6-(5-chloro-2-fluorophenyl)pyridazin-4-yl]amino}pyridin-2-yl)-3-(4-methylpiperazin-1-yl)propanamide]: the Ki is 0.126 to 0.794 nM.
Take `CN1CCN(CCC(=O)Nc2cc(Nc3cc(-c4cc(Cl)ccc4F)nnc3C3CCC(=O)N3C)ccn2)CC1` (centres unmarked) [Example 17, N-(4-((6-(5-chloro-2-fluorophenyl)-3-(1-methyl-5-oxopyrrolidin-2-yl)pyridazin-4-yl)amino)pyridin-2-yl)-3-(4-methylpiperazin-1-yl)propanamide]: the Ki is 1 to 3.16 nM.
Consider `CN1CCN(CCC(=O)Nc2cc(Nc3cc(-c4cc(Cl)ccc4F)nnc3C3CCO3)ccn2)CC1` (centres unmarked) [Example 18, N-(4-{[6-(5-chloro-2-fluorophenyl)-3-(oxetan-2-yl)pyridazin-4-yl]amino}pyridin-2-yl)-3-(4-methylpiperazin-1-yl)propanamide], for which the Ki was 0.126 to 0.794 nM.
The value for `CN1CCN(CCC(=O)Nc2cc(Nc3cc(-c4cc(Cl)ccc4F)nnc3C3CCC(=O)S3)ccn2)CC1` (centres unmarked) [Example 19, N-(4-((6-(5-chloro-2-fluorophenyl)-3-(5-oxotetrahydrothiophen-2-yl)pyridazin-4-yl)amino)pyridin-2-yl)-3-(4-methylpiperazin-1-yl)propanamide] was 0.126 to 0.794 nM.
With `CN1CCN(CCC(=O)Nc2cc(Nc3cc(-c4cc(Cl)ccc4F)nnc3C3COC(C)(C)N3C(=O)OC(C)(C)C)ccn2)CC1` (centres unmarked) [Example 20, tert-butyl 4-(6-(5-chloro-2-fluorophenyl)-4-((2-(3-(4-methylpiperazin-1-yl)propanamido)pyridin-4-yl)amino)pyridazin-3-yl)-2,2-dimethyloxazolidine-3-carboxylate] the figure was 0.126 to 0.794 nM; with `CN1CCN(CCC(=O)Nc2cc(Nc3cc(-c4cc(Cl)ccc4F)nnc3C3CCOC3)ccn2)CC1` (centres unmarked) [Example 21, N-(4-((6-(5-chloro-2-fluorophenyl)-3-(tetrahydrofuran-3-yl)pyridazin-4-yl)amino)pyridin-2-yl)-3-(4-methylpiperazin-1-yl)propanamide], 0.126 to 0.794 nM; with `CN1CCN(CCC(=O)Nc2cc(Nc3cc(-c4cc(Cl)ccc4F)nnc3C3CCCS3)ccn2)CC1` (centres unmarked) [Example 22, N-(4-((6-(5-chloro-2-fluorophenyl)-3-(tetrahydrothiophen-2-yl)pyridazin-4-yl)amino)pyridin-2-yl)-3-(4-methylpiperazin-1-yl)propanamide], 0.126 to 0.794 nM.
Consider `CN1CCN(CCC(=O)Nc2cc(Nc3cc(-c4cc(Cl)ccc4F)nnc3C3CC(=O)N(C)C3)ccn2)CC1` (centres unmarked) [Example 23, N-(4-((6-(5-chloro-2-fluorophenyl)-3-(1-methyl-5-oxopyrrolidin-3-yl)pyridazin-4-yl)amino)pyridin-2-yl)-3-(4-methylpiperazin-1-yl)propanamide], for which the Ki is 1 to 3.16 nM.
The value for `Fc1ccc(Cl)cc1-c1cc(Nc2ccc3ncsc3c2)c(C2=CCNCC2)nn1` [Example C1, N-[6-(5-chloro-2-fluorophenyl)-3-(1,2,3,6-tetrahydropyridin-4-yl)pyridazin-4-yl]-1,3-benzothiazol-6-amine, reference compound] was 60.3 nM.
